The values below come from patent US7875647B2, “Heteroaryl-pyrazole derivatives as cannabinoid CB1 receptor antagonists” (Green Cross Corporation, priority 2006, dated 2011).

T1 sequence (P20272 whole entry): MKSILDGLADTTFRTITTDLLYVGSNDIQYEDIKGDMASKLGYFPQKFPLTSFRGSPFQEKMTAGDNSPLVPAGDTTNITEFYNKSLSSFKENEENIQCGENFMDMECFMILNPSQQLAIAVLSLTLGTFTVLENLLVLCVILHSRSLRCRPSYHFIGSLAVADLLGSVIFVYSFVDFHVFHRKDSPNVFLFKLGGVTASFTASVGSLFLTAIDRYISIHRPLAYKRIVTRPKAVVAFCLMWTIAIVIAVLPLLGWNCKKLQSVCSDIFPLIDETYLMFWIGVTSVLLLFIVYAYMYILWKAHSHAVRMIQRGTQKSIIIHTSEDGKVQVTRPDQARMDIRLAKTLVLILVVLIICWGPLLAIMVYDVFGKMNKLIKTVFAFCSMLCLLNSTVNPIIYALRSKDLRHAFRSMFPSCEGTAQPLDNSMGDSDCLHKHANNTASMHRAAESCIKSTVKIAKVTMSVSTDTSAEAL

The first experiment concerns the target T1, Cannabinoid-1 receptor (CB1R) (Rattus norvegicus, UniProt P20272).
T1 construct: The tissue obtained from the brain of SD rats was homogenized; from tissue; host or cells: brain of SD rats (membrane pellet of the homogenate)
Description: Cannabinoid-1 receptor (CB1R) binding affinity assay ([3H]CP-55940, rat CB-1 receptor binding protocol). The conditions noted are these: IC50(nM), brain tissue of SD rats, [3H]CP-55940, 30° C. 60 min.
What is called IC50 is the concentration that gives 50% inhibition. For `CC(F)c1c(-c2nnc(C(C)(C)C)s2)nn(-c2ccc(Cl)cc2Cl)c1-c1ccc(Br)cc1` (centres unmarked) [Example 530, 2-(5-(4-bromophenyl)-1-(2,4-dichlorophenyl)-4-(1-fluoroethyl)-1H-pyrazol-3-yl)-5-tert-butyl-1,3,4-thiadiazole], the IC50 was determined as 11.8 nM.

As to `COC(=O)NC(C)c1c(-c2nnc(C(C)(C)C)s2)nn(-c2ccc(Cl)cc2Cl)c1-c1ccc(Br)cc1` (centres unmarked) [Example 532, Methyl 1-(5-(4-bromophenyl)-3-(5-tert-butyl-1,3,4-thiadiazol-2-yl)-1-(2,4-dichlorophenyl)-1H-pyrazol-4-yl)ethylcarbamate], the concentration for half-maximal inhibition (IC50) worked out at 8.75 nM.

The experiment is the same for the next values; noted with them: brain tissue of SD rats, [3H]CP-55940, 30° C. 60 min; read-out: IC50.
For the compound `Clc1ccc(-c2c(Cn3cncn3)c(-c3nnc(C4CCC4)s3)nn2-c2ccc(Cl)cc2Cl)cc1` [Example 504, 2-(4-((1H-1,2,4-triazol-1-yl)methyl)-5-(4-chlorophenyl)-1-(2,4-dichlorophenyl)-1H-pyrazol-3-yl)-5-cyclobutyl-1,3,4-thiadiazole], the concentration for half-maximal inhibition (IC50) amounted to 2.18 nM. On the same count and under the same terms, in the case of `Clc1ccc(-c2c(Cn3cncn3)c(-c3nnc(C4(c5ccc(Cl)cc5)CC4)s3)nn2-c2ccc(Cl)cc2Cl)cc1` [Example 506, 2-(4-((1H-1,2,4-triazol-1-yl)methyl)-5-(4-chlorophenyl)-1-(2,4-dichlorophenyl)-1H-pyrazol-3-yl)-5-(1-(4-chlorophenyl)cyclopropyl)-1,3,4-thiadiazole] it was 2.49 nM; in that of `Clc1ccc(-c2c(Cn3cncn3)c(-c3nnc(C4(c5ccccc5)CC4)s3)nn2-c2ccc(Cl)cc2Cl)cc1` [Example 507, 2-(4-((1H-1,2,4-triazol-1-yl)methyl)-5-(4-chlorophenyl)-1-(2,4-dichlorophenyl)-1H-pyrazol-3-yl)-5-(1-phenylcyclopropyl)-1,3,4-thiadiazole], 1.79 nM; in that of `Cc1ccc(C2(c3nnc(-c4nn(-c5ccc(Cl)cc5Cl)c(-c5ccc(Cl)cc5)c4Cn4cncn4)s3)CC2)cc1` [Example 508, 2-(4-((1H-1,2,4-triazol-1-yl)methyl)-5-(4-chlorophenyl)-1-(2,4-dichlorophenyl)-1H-pyrazol-3-yl)-5-(1-p-tolylcyclopropyl)-1,3,4-thiadiazole], 5.74 nM. `COc1ccc(C2(c3nnc(-c4nn(-c5ccc(Cl)cc5Cl)c(-c5ccc(Cl)cc5)c4Cn4cncn4)s3)CC2)cc1` [Example 509, 2-(4-((1H-1,2,4-triazol-1-yl)methyl)-5-(4-chlorophenyl)-1-(2,4-dichlorophenyl)-1H-pyrazol-3-yl)-5-(1-(4-methoxyphenyl)cyclopropyl)-1,3,4-thiadiazole]: the concentration for half-maximal inhibition (IC50) stood at 2.07 nM.

`Clc1ccc(-c2c(Cn3cncn3)c(-c3nnc(C4(c5ccc(Cl)cc5Cl)CC4)s3)nn2-c2ccc(Cl)cc2Cl)cc1` [Example 510, 2-(4-((1H-1,2,4-triazol-1-yl)methyl)-5-(4-chlorophenyl)-1-(2,4-dichlorophenyl)-1H-pyrazol-3-yl)-5-(1-(2,4-dichlorophenyl)cyclopropyl)-1,3,4-thiadiazole]: the concentration for half-maximal inhibition (IC50) came out at 11.3 nM. With `FC(F)(F)C1(c2nnc(-c3nn(-c4ccc(Cl)cc4Cl)c(-c4ccc(Cl)cc4)c3Cn3cncn3)s2)CC1` [Example 511, 2-(4-((1H-1,2,4-triazol-1-yl)methyl)-5-(4-chlorophenyl)-1-(2,4-dichlorophenyl)-1H-pyrazol-3-yl)-5-(1-(trifluoromethyl)cyclopropyl)-1,3,4-thiadiazole], the IC50 turned out to be 2.29 nM.

On to `FC(F)(F)C1(c2nnc(-c3nn(-c4ccc(Cl)cc4Cl)c(-c4ccc(Cl)cc4)c3Cn3cncn3)s2)CCC1` [Example 512, 2-(4-((1H-1,2,4-triazol-1-yl)methyl)-5-(4-chlorophenyl)-1-(2,4-dichlorophenyl)-1H-pyrazol-3-yl)-5-(1-(trifluoromethyl)cyclobutyl)-1,3,4-thiadiazole], for which the IC50 worked out at 2.89 nM. For `Clc1ccc(-c2c(Cn3cncn3)c(-c3nnc(C4(c5ccc(Cl)cc5)CCC4)s3)nn2-c2ccc(Cl)cc2Cl)cc1` [Example 513, 2-(4-((1H-1,2,4-triazol-1-yl)methyl)-5-(4-chlorophenyl)-1-(2,4-dichlorophenyl)-1H-pyrazol-3-yl)-5-(1-(4-chlorophenyl)cyclobutyl)-1,3,4-thiadiazole], the 50% inhibitory concentration (IC50) came to 2.34 nM. Turning to `Clc1ccc(-c2c(Cn3cncn3)c(-c3nnc(C4(c5ccccc5)CCCC4)s3)nn2-c2ccc(Cl)cc2Cl)cc1` [Example 514, 2-(4-((1H-1,2,4-triazol-1-yl)methyl)-5-(4-chlorophenyl)-1-(2,4-dichlorophenyl)-1H-pyrazol-3-yl)-5-(1-phenylcyclopentyl)-1,3,4-thiadiazole], the IC50 came out at 2.88 nM.

Take `Clc1ccc(-c2c(Cn3cncn3)c(-c3nnc(C4(c5ccc(Cl)cc5)CCCC4)s3)nn2-c2ccc(Cl)cc2Cl)cc1` [Example 515, 2-(4-((1H-1,2,4-triazol-1-yl)methyl)-5-(4-chlorophenyl)-1-(2,4-dichlorophenyl)-1H-pyrazol-3-yl)-5-(1-(4-chlorophenyl)cyclopentyl)-1,3,4-thiadiazole]: the IC50 came out at 1.91 nM. For `CC(=O)OCc1c(-c2nnc(C(C)(C)C)s2)nn(-c2ccc(Cl)cc2Cl)c1-c1ccc(Br)cc1` [Example 520, (5-(4-bromophenyl)-3-(5-tert-butyl-1,3,4-thiadiazol-2-yl)-1-(2,4-dichlorophenyl)-1H-pyrazol-4-yl)methyl acetate], the IC50 worked out at 9.01 nM.

For the compound `CC(=O)OCc1c(-c2nnc(C(C)(C)C)s2)nn(-c2ccc(Cl)cc2Cl)c1-c1ccc(Cl)cc1` [Example 521, (3-(5-tert-butyl-1,3,4-thiadiazol-2-yl)-5-(4-chlorophenyl)-1-(2,4-dichlorophenyl)-1H-pyrazol-4-yl)methyl acetate], the half-maximal inhibitory concentration (IC50) is 16.7 nM. On to `CC(C)(C)c1nnc(-c2nn(-c3ccc(Cl)cc3Cl)c(-c3ccc(Br)cc3)c2CO)s1` [Example 522, (5-(4-bromophenyl)-3-(5-tert-butyl-1,3,4-thiadiazol-2-yl)-1-(2,4-dichlorophenyl)-1H-pyrazol-4-yl)methanol], for which the IC50 stood at 4.61 nM. For `CC(C)(C)c1nnc(-c2nn(-c3ccc(Cl)cc3Cl)c(-c3ccc(Cl)cc3)c2CO)s1` [Example 523, (3-(5-tert-butyl-1,3,4-thiadiazol-2-yl)-5-(4-chlorophenyl)-1-(2,4-dichlorophenyl)-1H-pyrazol-4-yl)methanol], the IC50 came to 6.88 nM.

On to `COCc1c(-c2nnc(C(C)(C)C)s2)nn(-c2ccc(Cl)cc2Cl)c1-c1ccc(Br)cc1` [Example 524, 2-(5-(4-bromophenyl)-1-(2,4-dichlorophenyl)-4-(methoxymethyl)-1H-pyrazol-3-yl)-5-tert-butyl-1,3,4-thiadiazole], for which the IC50 was determined as 8.31 nM. With `CC(C)(C)c1nnc(-c2nn(-c3ccc(Cl)cc3Cl)c(-c3ccc(Br)cc3)c2CF)s1` [Example 525, 2-(5-(4-bromophenyl)-1-(2,4-dichlorophenyl)-4-(fluoromethyl)-1H-pyrazol-3-yl)-5-tert-butyl-1,3,4-thiadiazole], the concentration for half-maximal inhibition (IC50) was found to be 8.93 nM. In the case of `CC(C)(C)c1nnc(-c2nn(-c3ccc(Cl)cc3Cl)c(-c3ccc(Br)cc3)c2COc2ccc(C(F)(F)F)cn2)s1` [Example 526, 2-(5-(4-bromophenyl)-1-(2,4-dichlorophenyl)-4-((5-(trifluoromethyl)pyridin-2-yloxy)methyl)-1H-pyrazol-3-yl)-5-tert-butyl-1,3,4-thiadiazole], the concentration for half-maximal inhibition (IC50) is 31.3 nM. As to `CC(C)(C)c1nnc(-c2nn(-c3ccc(Cl)cc3Cl)c(-c3ccc(Br)cc3)c2C=O)s1` [Example 527, 5-(4-bromophenyl)-3-(5-tert-butyl-1,3,4-thiadiazol-2-yl)-1-(2,4-dichlorophenyl)-1H-pyrazole-4-carbaldehyde], the IC50 came out at 10.1 nM. Still for that read-out and setting: in the case of `CC(O)c1c(-c2nnc(C(C)(C)C)s2)nn(-c2ccc(Cl)cc2Cl)c1-c1ccc(Br)cc1` (centres unmarked) [Example 528, 1-(5-(4-bromophenyl)-3-(5-tert-butyl-1,3,4-thiadiazol-2-yl)-1-(2,4-dichlorophenyl)-1H-pyrazol-4-yl)ethanol] it was 6.47 nM; in that of `C=Cc1c(-c2nnc(C(C)(C)C)s2)nn(-c2ccc(Cl)cc2Cl)c1-c1ccc(Br)cc1` [Example 531, 2-(5-(4-bromophenyl)-1-(2,4-dichlorophenyl)-4-vinyl-1H-pyrazol-3-yl)-5-tert-butyl-1,3,4-thiadiazole], 20.6 nM.

Take `CC(=O)c1c(-c2nnc(C(C)(C)C)s2)nn(-c2ccc(Cl)cc2Cl)c1-c1ccc(Br)cc1` [Example 533, 1-(5-(4-bromophenyl)-3-(5-tert-butyl-1,3,4-thiadiazol-2-yl)-1-(2,4-dichlorophenyl)-1H-pyrazol-4-yl)ethanone]: the half-maximal inhibitory concentration (IC50) is 6.03 nM. As for `C=C(C)c1c(-c2nnc(C(C)(C)C)s2)nn(-c2ccc(Cl)cc2Cl)c1-c1ccc(Br)cc1` [Example 535, 2-(5-(4-bromophenyl)-1-(2,4-dichlorophenyl)-4-(prop-1-en-2-yl)-1H-pyrazol-3-yl)-5-tert-butyl-1,3,4-thiadiazole], the IC50 worked out at 12 nM. As to `Clc1ccc(-c2c(Cl)c(-c3nnc(C4CCC4)s3)nn2-c2ccc(Cl)cc2Cl)cc1` [Example 536, 2-(4-chloro-5-(4-chlorophenyl)-1-(2,4-dichlorophenyl)-1H-pyrazol-3-yl)-5-cyclobutyl-1,3,4-thiadiazole], the 50% inhibitory concentration (IC50) was 199 nM.

Consider `CCC(C)(C)c1nnc(-c2nn(-c3ccc(Cl)cc3Cl)c(-c3ccc(Cl)cc3)c2Cl)s1` [Example 537, 2-(4-chloro-5-(4-chlorophenyl)-1-(2,4-dichlorophenyl)-1H-pyrazol-3-yl)-5-tert-pentyl-1,3,4-thiadiazole], for which the 50% inhibitory concentration (IC50) is 127 nM. With `Clc1ccc(-c2c(Cl)c(-c3nnc(C4CCCCC4)s3)nn2-c2ccc(Cl)cc2Cl)cc1` [Example 538, 2-(4-chloro-5-(4-chlorophenyl)-1-(2,4-dichlorophenyl)-1H-pyrazol-3-yl)-5-cyclohexyl-1,3,4-thiadiazole], the half-maximal inhibitory concentration (IC50) is 653 nM. With `CCC(C)c1nnc(-c2nn(-c3ccc(Cl)cc3Cl)c(-c3ccc(Cl)cc3)c2Cl)s1` (centres unmarked) [Example 539, 2-sec-butyl-5-(4-chloro-5-(4-chlorophenyl)-1-(2,4-dichlorophenyl)-1H-pyrazol-3-yl)-1,3,4-thiadiazole], the half-inhibitory concentration (IC50) was found to be 102 nM.
